{"source": "patent US20070225544A1", "about": "“APPARATUSES AND TECHNIQUES FOR BIOACTIVE DRUG DELIVERY IN THE PROSTATE GLAND” (priority 2006, published 2007)", "origin": "cited, not measured here", "key": {"[1]": {"test_system": "benign prostatic hypertrophy (BPH)", "conditions": "in vivo"}}, "data": [{"compound": "CC(=O)OCC(=O)[C@@]1(O)CC[C@H]2[C@@H]3CCC4=CC(=O)CC[C@]4(C)[C@H]3[C@@H](O)C[C@@]21C", "note": "[Hydrocortisone acetate]", "values": [{"measurement": "Duration", "setting": "relative duration of action of injectable corticosteroid agent", "result": "Short"}, {"measurement": "Potency", "setting": "relative potency of injectable corticosteroid agent", "result": "Low"}]}, {"compound": "botulinum-toxin", "values": [{"measurement": "decrease in urinary symptoms", "setting": "[1]", "result": 30, "unit": "%"}, {"measurement": "effective for up to ... in managing BPH", "setting": "[1]", "result": "up to 1 year"}]}]}
